The nature of data set [1]: Pharmacokinetic study (ocular distribution) in monkeys after single ocular instillation. As to conditions: monkey, 4 h, regorafenib 17.1 mg/mL (50 μL/eye) or pazopanib 5.0 mg/mL (30 μL/eye). As to the method: (§1) In the rabbit and monkey studies, sample preparation and determination of drug concentrations were performed in the same manner for the rat pharmacokinetic study.

Data set [2] concerns choroidal neovascularization. Further details: method as in PMID 21620822. As to conditions: after ocular instillation in rats; cited from earlier work.
In data set [3] the test system is VEGF‐induced fluorescein leakage. Further details: method as in PMID 23169884. As to conditions: ocular instillation in rabbits; cited from earlier work.
For data set [4], the system named is melanin. On the set-up: method as in PMID 23385800. As to conditions: cited from earlier work.
Data set [5] relates to neovascular AMD. As to conditions: eye‐drop formulations; cited from earlier work.
A short description of data set [6]: in vivo. As to conditions: rat, topical or ocular; for half-life: t1/2, rat.
Protocol: (§2) The both eyes (dosed eye and nondosed eye) were collected and washed by water, and then the eye tissues (the choroid/sclera and retina) were collected.
(§3) An aliquot of acetonitrile solution containing an internal standard was added to the plasma sample and mixed. After centrifugation, supernatant was mixed with 10 mmol/L ammonium acetate solution to prepare a sample for determination of drug concentration by liquid chromatography‐tandem mass spectrometry (LC/MS/MS). An aliquot of 50 vol% methanol was added to the eye tissues, and then homogenized by a beads shocker to prepare homogenate samples. An aliquot of the acetonitrile solution containing the internal standard was added to the homogenate samples and mixed. After centrifugation, supernatant was mixed with 10 mmol/L ammonium acetate solution to prepare samples for the determination of drug concentrations.
(§4) LC/MS/MS system consisted of ACQUITY UPLC system (Waters Corporation) and QTRAP6500 (AB SCIEX) was used for the determination of drug concentrations. The prepared samples were separated by ACQUITY UPLC peptide BEH C18 column (1.7 µm, 2.1 × 50 mm) (Waters Corporation, Milford, MA), with mobile phase A: 10 mmol/L ammonium acetate solution and mobile phase B: acetonitrile. After injection of the prepared samples to LC/MS/MS, the samples were eluted (0.2 mL/minutes) with 30% B followed 0.10 minutes isocratic period; 3.90 minutes linear gradient to 70% B; 0.01 minutes linear gradient to 30% B; and 1.49 minutes isocratic period. Multiple reaction monitoring was performed by using an atmospheric pressure chemical ionization probe, and monitor ion of regorafenib and pazopanib were 482.958/270.000 (m/z, Q1/Q3) and 438.184/356.900 (m/z, Q1/Q3), respectively.
(§5) The pharmacokinetic parameters of regorafenib and pazopanib in the eye tissues and plasma were calculated by average concentrations in the eye tissues and plasma. Maximum concentration (Cmax) and the time to reach Cmax (tmax) were obtained directly from the observed values. Log‐transformed concentrations were plotted against time. The elimination rate constant (ke) was estimated by linear least‐squares method using the last 2 or 3 observed data points. Apparent half‐life (t1/2) was obtained as ln2/ke. Area under the concentration vs time curve (AUC) from time 0 to the observed data point (AUC0‐t) was calculated using the linear trapezoidal method. AUC after the last data point was estimated by extrapolating with the ke and added up with AUC0‐t to calculate AUC from time 0 to infinity (AUC0‐∞).
Data set [7] concerns laser‐induced CNV. As to the kind of experiment: Laser‐induced monkey CNV model. As to conditions: for Change in incidence of Grade 4 lesions between Day‐1 and Day35: Fisher's exact test, Day‐1 vs Day 35; for Percentage of Grade 4 lesion: aflibercept 500 μg/eye intravitreal once, mean of 6 eyes.
Protocol: Pharmacological study in laser‐induced monkey CNV model was conducted by referring to and optimizing the previous researches.28, 29, 30 Animals were allocated to groups to minimize bias in the incidence and severity of CNV lesions and body weight between the groups.
After the induction of mydriasis by instillation of Mydrin‐P ophthalmic solution has been confirmed, animals were anesthetized by intramuscular injection with a mixture solution of ketamine hydrochloride/xyladine (7/1, v/v). A fundus contact lens (Centralis Direct; Volk Optical Inc) was attached to the cornea with Scopisol solution and the position of the macula was confirmed. Laser was irradiated on the macula to induce CNV (8 sites per eye, 6 eyes per group). The laser irradiation conditions were as follows; wavelength: 532 nm, spot size: 80 μm, irradiation time: 0.1 seconds, and laser output: 1000 mW. The laser irradiation was conducted 21 days before the initiation of ocular instillation of test articles.
Aflibercept (500 μg/eye) was administered by intravitreal injection to the animals once 22 days after the laser irradiation.
In the aflibercept dosed group, fluorescein fundus angiography and CNV grade evaluation were conducted at the same time points in eye‐drops dosed groups.
Fluorescite Intravenous Injection 500 mg was administered into the cephalic vein under mydriasis and anesthesia. Photographs of fundus were taken with a fundus camera (VX‐10α; Kowa Co., Ltd., Aichi, Japan) approximately 1, 3, and 5 minutes after the administration of fluorescein. Each CNV lesion was graded as follows; Grade 1: no hyperfluorescence, Grade 2: hyperfluorescence without leakage, Grade 3: hyperfluorescence in the early (1 minute after administration of fluorescein) or midtransit (3 minutes after administration of fluorescein) images and late (5 minutes after administration of fluorescein) leakage, Grade 4: bright hyperfluorescence in the early or midtransit images and late leakage beyond the treated area in reference to the previous studies.28, 29, 30 The incidences of Grade 1, Grade 2, Grade 3 and Grade 4 lesions in the each eye (6 eyes per group) were calculated by the following equation, the incidence of grade lesion (%) = the number of grade lesions/ 8 × 100. The mean value of the incidences of Grade 4 lesions was calculated from 6 individual data in each group.
Fisher's exact test was performed for the incidence of Grade 4 lesions between Day‐1 and Day 35 in each group. MiTOX System (Mitsui E&S Systems Research Inc (former company name; Mitsui Zosen Systems Research Inc) was used for the statistical analysis at a two‐sided significance level of 5%.
Data set [8] in a line: Pharmacokinetic study in rats after single ocular instillation.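 On all read-outs here: drug levels in plasma and homogenized choroid/sclera and retina quantified by LC/MS/MS, parameters derived from mean concentrations, t1/2 from terminal log-linear slope, AUC via linear trapezoids.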 As to conditions: rat; for AUC0‐t / AUC0‐∞ / AUC: single ocular instillation, 10 μL/eye; for AUC0‐t / AUC0‐∞ / AUC / Concentration: regorafenib 21.2 mg/mL or pazopanib 4.9 mg/mL; for concentration at 0.5 h: topical; for half-life / Tmax / AUC: topical or ocular; for Concentration: choroid/sclera, 0.01 mL; for choroid/sclera concentration: 0.5 hours after administration.
Protocol: as §2, §3, §4, §5

The nature of data set [9]: Pharmacokinetic study in rabbits after single ocular instillation. As to conditions: rabbit, choroid/retina, 1.5 h, regorafenib 24.1 mg/mL or pazopanib 5.0 mg/mL, 0.02 mL. The protocol:
as §1

Setting [10] is: choroid/sclera of the dosed eye.
[11] abbreviates: in vivo, choroid/sclera of dosed eye, single ocular instillation, regorafenib 21.2 mg/mL or pazopanib 4.9 mg/mL, 10 μL/eye.
[12] abbreviates: in vivo, plasma, single ocular instillation, regorafenib 21.2 mg/mL or pazopanib 4.9 mg/mL, 10 μL/eye.

A word on the Tmax: it is the time from dosing to the highest level. In general, half-life refers to the time needed for the level to fall by half in the phase considered. Broadly, the AUC is concentration integrated over time. Turning to `Cc1ccc(Nc2nccc(N(C)c3ccc4c(C)n(C)nc4c3)n2)cc1S(N)(=O)=O.Cl` [Pazopanib, 5‐[[4‐[(2,3‐dimethylindazol‐6‐yl)‐methylamino]pyrimidin‐2‐yl]amino]‐2‐methylbenzenesulfonamide hydrochloride], the Concentration entry in [1] (cornea, nondosed eye) is reported as “BLQ (<1) ng/g”. Moreover, the “Effect on angiogenesis and vascular hyperpermeability” value in data set [2] was “reduced angiogenesis and vascular hyperpermeability”. In addition, the “Suppression of VEGF‐induced fluorescein leakage in the posterior eye tissues” value in data set [3] was “failed to suppress”. The Binding to melanin entry in [4] is listed as “strongly binds to melanin”. The “Clinical efficacy of eye‐drop formulation in neovascular AMD” value in data set [5] is reported as “lack of efficacy”. Also, the results for the Tmax in [6] (setting [10]), in [8] (plasma) and in [8] (retina of the dosed eye) were 4 h, 0.5 h and 120 h, respectively. In addition, the “Change in incidence of Grade 4 lesions between Day‐1 and Day35” value in [7] is listed as “no significant difference”. In addition, the “AUC0‐t” value in [8] (choroid/sclera of dosed eye) was 42 100 h × ng/g; in data set [8] (retina of dosed eye), 3450 ng·h/g. Further, the entries for the “AUC0‐∞” value in data set [8] (choroid/sclera of dosed eye) and in data set [8] (retina of dosed eye) were 112 000 h × ng/g and 6660 ng·h/g, respectively. Further, the concentration at 0.5 h in data set [8] (setting [10]) worked out at 293 ng/g; in [8] (choroid/sclera of the nondosed eye) it was 11.3 ng/g. Besides, the half-life was 245 h in data set [8] (setting [10]); 20.1 h in [8] (plasma); 159 h in [8] (retina of the dosed eye, 4.9 mg/mL (10 μL/eye)). Besides, the AUC turned out to be 1280 ng·h/mL in data set [8] (plasma, AUC0‐t) and 1300 ng·h/mL in [8] (plasma, AUC0‐∞).

Broadly, the Cmax is the highest concentration seen after dosing. As to `CNC(=O)c1cc(Oc2ccc(NC(=O)Nc3ccc(Cl)c(C(F)(F)F)c3)c(F)c2)ccn1.O` [Regorafenib, 4‐[4‐ ({[4‐Chloro‐3‐(trifluoromethyl)phenyl]carbamoyl}amino)‐3‐fluorophenoxy]‐N‐methylpyridine‐2‐carboxamide monohydrate], the Concentration entry is “BLQ (<1) ng/g” in data set [9] (dosed eye); “BLQ (<1) ng/g” in [9] (nondosed eye); “BLQ (<3) ng/g” in [1] (choroid, nondosed eye); 350 ng/g in data set [1] (cornea, dosed eye); “BLQ (<3) ng/g” in data set [1] (cornea, nondosed eye); 49.4 ng/g in data set [1] (iris/ciliary body, dosed eye). For the same molecule, the Concentration entry is “BLQ (<3) ng/g” in [1] (iris/ciliary body, nondosed eye); “BLQ (<3) ng/g” in data set [1] (retina, dosed eye); “BLQ (<3) ng/g” in [1] (retina, nondosed eye); 552 ng/g in data set [8] (dosed eye, 1.5 h); 340 ng/g in [8] (dosed eye, 4 h); 29.1 ng/g in [8] (nondosed eye, 1.5 h). The Concentration in [8] (nondosed eye, 4 h) is listed as 72.3 ng/g. The “Clinical efficacy of eye‐drop formulation in neovascular AMD” value in data set [5] is “lack of efficacy”. In addition, the AUC in data set [6] (in vivo, AUC0‐t, plasma, single ocular instillation, regorafenib 21.2 mg/mL or pazopanib 4.9 mg/mL, 10 μL/eye) was 1010 ng·h/mL; in data set [6] (in vivo, AUC0‐∞, plasma, single ocular instillation, regorafenib 21.2 mg/mL or pazopanib 4.9 mg/mL, 10 μL/eye), 1060 ng·h/mL. The Cmax came out at 1310 ng/g in data set [6] (setting [11]); 38.6 ng/mL in data set [6] (setting [12]); 28 ng/g in [6] (in vivo, retina of dosed eye, single ocular instillation, regorafenib 21.2 mg/mL or pazopanib 4.9 mg/mL, 10 μL/eye). Also, the half-life in data set [6] (setting [11]) is 29.7 h; in data set [6] (setting [12]) it was 23.9 h. The time to peak (Tmax) in [6] (in vivo, tmax) stood at 0.5 h; in [6] (in vivo, tmax, plasma, single ocular instillation, regorafenib 21.2 mg/mL or pazopanib 4.9 mg/mL, 10 μL/eye), 7 h; in data set [6] (in vivo, tmax, retina of dosed eye, single ocular instillation, regorafenib 21.2 mg/mL or pazopanib 4.9 mg/mL, 10 μL/eye) it was 7 h. In addition, the “AUC0‐t” value in data set [8] (choroid/sclera of dosed eye) is 15 300 h × ng/g; in [8] (retina of dosed eye) it was 517 ng·h/g. Further, the “AUC0‐∞” value in data set [8] (choroid/sclera of dosed eye) is on record as 16 400 h × ng/g. Further, the figures for the choroid/sclera concentration in [8] (dosed eye) and in data set [8] (nondosed eye) were 1310 ng/g and 129 ng/g, respectively.

As to “Aflibercept: 40 mg/mL EYLEA Injection For Intravitreal Injection; anti‐VEGF agent, positive control”, the “Percentage of Grade 4 lesion” value is 4.2% in data set [7] (Day 8, pazopanib eye‐drops 5.0 mg/mL four times daily); 4.2% in data set [7] (Day 15, pazopanib eye‐drops 5.0 mg/mL four times daily); 4.2% in [7] (Day 22, pazopanib eye‐drops 5.0 mg/mL four times daily); 4.2% in data set [7] (Day 29, pazopanib eye‐drops 5.0 mg/mL four times daily). In addition, the “Change in incidence of Grade 4 lesions between Day‐1 and Day35” value in data set [7] was “significant efficacy had been maintained until Day35”.

The values above are taken from article PMC6864407 (Pharmacology Research & Perspectives, 2019).
